Values after ≈ are worked out from the molar mass of the structure shown.

Series [1] is described as follows: In vitro release of ciprofloxacin from device (HPLC). Type of series: physicochemical. On the procedure:
Ciprofloxacin is normally supplied as the HCl salt. […] A 5% solution of PLA was used as a "glue" to fix a 7-0 nylon suture to the pellet.
Release from these devices was determined at 37° C. by immersion in 1 ml of phosphate buffer (pH 7.4) or a solution composed of 20% serum: 80% phosphate buffer. […] Samples were again assayed by HPLC.

The test system of another series is most pathogens. To be noted: cited from earlier work.
Series [2] concerns eye. Put plainly: Ocular safety of ciprofloxacin device (ERG, slit lamp, indirect biomicroscopy).
The subject of series [3] is eye. Briefly: ERG toxicity of retinoic acid implant sutured onto sclera. Type of series: in vivo. The settings on record: 12 mg disc in silicone on sclera, 3 rabbits, ERG weekly for 5 weeks. On the procedure: A device according to the present invention was prepared. This device was composed of a 3 mm, 12 mg disc of retinoic acid encased in silicone. It resembles FIG. 3 in appearance. The implant was prepared by preparing a thin film of silicone. A 2.5 mm hole was then cut through the film and the retinoic acid pellet fixed directly over the hole using silicone. A loop of Prolene suture was placed over the pellet and fixed onto the surface of the film so that a "gap" of over 1 mm was present between the pellet and the suture all the way around. The entire assembly was then coated again in silicone. These pellets were sutured onto the surface of the sclera in 3 rabbits and the ERGs taken every week for 5 weeks.

Take `O=C(O)c1cn(C2CC2)c2cc(N3CCNCC3)c(F)cc2c1=O` [ciprofloxacin]: the linearity of release result in series [1] (37° C., 6 days, phosphate buffer pH 7.4 or 20% serum) is listed as “linear over the duration of the study”. Also, the “effect of serum concentration on release” value in series [1] (phosphate buffer pH 7.4 vs 20% serum) is reported as “relatively independent of serum concentration”. Besides, the linearity of release result in series [1] (separate study, twenty day period) is “linear over a twenty day period”. Under “5 mg subconjunctival suspension injection”, the “persistence of drug particles in subconjunctival space” value came to 7 days. For the same compound, where the note is “explanted devices”, the “linearity of release in the vitreous” value is recorded as “linear while in the vitreous” and the “mean release rate in the vitreous” value is 2.5 µg/h. For the same compound, the mean device duration (from mean release rate) is given as 4 weeks. Besides, the MIC90 with most pathogens was 1 µg/mL (≈ 3.02 µM). For the same compound, in the series on eye [2] (7 and 14 days), the slit lamp examination entry is recorded as “mild vitreous cell at 7 days that had resolved by 14 days”. The indirect biomicroscopy result in the series with eye [2] (implanted eyes) is “devices to be stable with no migration and no retinal detachment”. Also, the “ERG waveforms or amplitudes” value in the series with eye [2] (pre- vs post-implantation) was “no significant difference in the pre- and post-implantation waveforms or amplitudes”.
`CC1=C(/C=C/C(C)=C/C=C/C(C)=C/C(=O)O)C(C)(C)CCC1` [retinoic acid]: in the series with eye [3], the “toxicity (ERG)” value is on record as “no evidence of toxicity”.
